According to patent US20260315468A1, “PHARMACEUTICAL COMPOSITION AND USE THEREOF” (SHANGHAI ALLIST PHARMACEUTICAL CO., LTD., priority 2022, published 2026):

What was measured:
Ba/F3 EGFR-Del19/C797S = experiment: Anti-proliferation, CellTiter-Glo Luminescent Cell Viability Assay; type: cell-based; details: Mus musculus, BaF3, 72 h, 3 days
Source text: (§1) The objective of the test example 1 was to evaluate the anti-proliferation effect of Furmonertinib mesilate on 18 cell lines (Ba/F3 EGFR-G719S, Ba/F3 EGFR-S768I, Ba/F3 EGFR-G724S, Ba/F3 EGFR-L718Q, Ba/F3 EGFR-Del19/G724S, Ba/F3 EGFR-E709H, Ba/F3 EGFR-L747S, Ba/F3 EGFR-E709V, Ba/F3 EGFR-L747V, Ba/F3 EGFR-E709-710>D, Ba/F3 EGFR-E709A, Ba/F3 EGFR-Del19/C797S, Ba/F3 EGFR-L858R/C797S, Ba/F3 EGFR-L747S/G719A, Ba/F3-EGFR-L858R-L718V, Ba/F3-EGFR-L858R-L718Q, Ba/F3-EGFR-E709K-G719A, and Ba/F3 EGFR-L861Q) using standard CellTiter-Glo® Luminescent Cell Viability Assay. Further, AZD9291 was used as control compound.
(§2) Cell culture: Ba/F3 EGFR-G719S, Ba/F3 EGFR-S768I, Ba/F3 EGFR-G724S, Ba/F3 EGFR-L718Q, Ba/F3 EGFR-Del19/G724S, Ba/F3 EGFR-E709H, Ba/F3 EGFR-L747S, Ba/F3 EGFR-E709V, Ba/F3 EGFR-L747V, Ba/F3 EGFR-E709-710>D, Ba/F3 EGFR-E709A, Ba/F3 EGFR-Del19/C797S, Ba/F3 EGFR-L858R/C797S, Ba/F3 EGFR-L747S/G719A, Ba/F3-EGFR-L858R-L718V, Ba/F3-EGFR-L858R-L718Q, Ba/F3-EGFR-E709K-G719A, and Ba/F3 EGFR-L861Q engineered cells were obtained from Kyinno, and maintained at 37° C. with 5% CO2, in the RPMI1640 media supplemented with 10% fetal bovine serum.
(§3) The cells during the logarithmic growth period were harvested and counted by using blood counting chamber. The cell viability was over 90% which was determined by trypan blue assay. The cell concentration was adjusted with culture medium. 90 μl cell suspensions was added to two 96-well plates to obtain the final cell density of 3000 cells per well. The plates were incubated in humidified incubator at 37° C. with 5% CO2.
(§4) The solution of tested compounds (Furmonertinib mesilate and AZD9291) was diluted 1000-fold with DMSO. Then, said DMSO solution was diluted 100-fold with PBS (Phosphate Buffered Saline) to obtain 10× working solution. And 10× reference control solution was prepared by Phosphate Buffered Saline (PBS). 10 μl working solution (10×) was dispensed to each well (triplicate for each concentration). (The top concentration was 3160 nM, 3.16-fold dilution and 10 different concentrations. The final concentration of DMSO in culture medium was 0.1% [v/v]). The plate was cultured for 3 days.
(§5) On Day 3, CellTiter-Glo® reagent (a luciferase ATP bioluminescence detection reagent) was thawed, and then the cell plate was equilibrated at room temperature for approximately 30 minutes. 100 μl CellTiter-Glo® Reagent which was equal to the volume of cell culture medium present in each well was added. The obtained content was mixed for 5 minutes on an orbital shaker to induce cell lysis. The cell plate was incubated at room temperature for 20 minutes to stabilize luminescent signal. The luminescence was recorded by using Multi-mode Microplate Reader.
(§6) [formula] • blank control: medium control; • vehicle control: culture medium with 0.1% DMSO
(§7) The graphical curves were fitted using a nonlinear regression model with a sigmoidal dose response.

Ba/F3 EGFR-Del19/G724S = experiment: as above; type: cell-based; details: Mus musculus, BaF3, 72 h, 3 days
Source text: as §1, §2, §3, §4, §5, §6, §7

Ba/F3 EGFR-E709-710 > D = experiment: as above; type: cell-based; details: Mus musculus, BaF3, 72 h, 3 days
Source text: as §1, §2, §3, §4, §5, §6, §7

Ba/F3 EGFR-E709A = experiment: as above; type: cell-based; details: Mus musculus, BaF3, 72 h, 3 days
Source text: as §1, §2, §3, §4, §5, §6, §7

Ba/F3 EGFR-E709H = experiment: as above; type: cell-based; details: Mus musculus, BaF3, 72 h, 3 days
Source text: as §1, §2, §3, §4, §5, §6, §7

Ba/F3 EGFR-E709V = experiment: as above; type: cell-based; details: Mus musculus, BaF3, 72 h, 3 days
Source text: as §1, §2, §3, §4, §5, §6, §7

Ba/F3 EGFR-G719S = experiment: as above; type: cell-based; details: Mus musculus, BaF3, 72 h, 3 days
Source text: as §1, §2, §3, §4, §5, §6, §7

Ba/F3 EGFR-G724S [1] = experiment: as above; type: cell-based; details: Mus musculus, BaF3, 72 h, 3 days
Source text: as §1, §2, §3, §4, §5, §6, §7

Ba/F3 EGFR-L718Q = experiment: as above; type: cell-based; details: Mus musculus, BaF3, 72 h, 3 days
Source text: as §1, §2, §3, §4, §5, §6, §7

Ba/F3 EGFR-L747S/G719A = experiment: as above; type: cell-based; details: Mus musculus, BaF3, 72 h, 3 days
Source text: as §1, §2, §3, §4, §5, §6, §7

Ba/F3 EGFR-L747S = experiment: as above; type: cell-based; details: Mus musculus, BaF3, 72 h, 3 days
Source text: as §1, §2, §3, §4, §5, §6, §7

Ba/F3 EGFR-L747V = experiment: as above; type: cell-based; details: Mus musculus, BaF3, 72 h, 3 days
Source text: as §1, §2, §3, §4, §5, §6, §7

Ba/F3 EGFR-L858R/C797S = experiment: as above; type: cell-based; details: Mus musculus, BaF3, 72 h, 3 days
Source text: as §1, §2, §3, §4, §5, §6, §7

Ba/F3 EGFR-L861Q = experiment: as above; type: cell-based; details: Mus musculus, BaF3, 72 h, 3 days
Source text: as §1, §2, §3, §4, §5, §6, §7

Ba/F3 EGFR-S768I = experiment: as above; type: cell-based; details: Mus musculus, BaF3, 72 h, 3 days
Source text: as §1, §2, §3, §4, §5, §6, §7

Ba/F3-EGFR-E709K-G719A = experiment: as above; type: cell-based; details: 72 h, 3 days
Source text: as §1, §2, §3, §4, §5, §6, §7

Ba/F3-EGFR-L858R-L718Q = experiment: as above; type: cell-based; details: 72 h, 3 days
Source text: as §1, §2, §3, §4, §5, §6, §7

Ba/F3-EGFR-L858R-L718V = experiment: as above; type: cell-based; details: 72 h, 3 days
Source text: as §1, §2, §3, §4, §5, §6, §7

[2] = system: 18 Ba/F3 EGFR mutant cell lines; experiment: Anti-proliferation effect on 18 cell lines (overall result in words); type: cell-based; details: all 18 Ba/F3 EGFR mutant cell lines of Table 1
Source text: as §1, with “compound. […]” for “compound.”
The cells during the logarithmic growth period were harvested and counted by using blood counting chamber. The cell viability was over 90% which was determined by trypan blue assay. […]
On Day 3, CellTiter-Glo® reagent (a luciferase ATP bioluminescence detection reagent) was thawed, and then the cell plate was equilibrated at room temperature for approximately 30 minutes. […] The luminescence was recorded by using Multi-mode Microplate Reader. […]

Ba/F3 EGFR-G724S [3] = experiment: Anti-tumor effect in Ba/F3 EGFR-G724S (KC-1385) cell xenograft model; type: in vivo, B-NDG mice; details: orally, once per day, two weeks
Source text: (§8) This study was used for evaluate the anti-tumor efficacy of furmonertinib mesilate in the female (B-NDG) immune deficiency mice bearing tumors of Ba/F3 EGFR-G724S engineered cells.
(§9) Experimental animals: B-NDG mice, female, 6-8 weeks, and weighing 18-20 g.
(§10) Animal modeling and random grouping: Ba/F3 EGFR-G724S cells were cultivated, cells were collected, and re-suspended and counted in serum-free medium, the re-suspended cells with the addition of a matrigel at 1:1 were subcutaneous inoculated at 1×10^6 cells/0.1 mL in B-NDG mice. When the average tumor volume was about 80-120 mm^3, the animals were randomly grouped into four experiment groups according to the tumor size. Each group contained 12 mice. The grouping day was defined as Day 0, i.e., D0.
The experimental scheme: B-NDG mice were subcutaneously inoculated with Ba/F3 EGFR-G724S cells to establish a cell-line-derived xenograft model. The experiment was divided into 15 mg/kg group of furmonertinib mesilate, 30 mg/kg group of furmonertinib mesilate, 50 mg/kg group of furmonertinib mesilate and vehicle group, wherein each group contained 12 animals, orally administered with the administration volume of 10 uL/g, and the vehicle group was administered with the same amount of vehicle, the administration was carried out once per day and lasted for two weeks. During the whole experiment, the body weight and the tumor sizes of the mice were measured twice each week, and whether or not the presence of toxic reactions was observed.
Tumor Volume (TV) was calculated by: TV=0.5*a*b^2, where a was the long diameter of the tumor and b was the short diameter of the tumor.
The curves for the tumor volume change of four experimental groups were shown in FIG. 1, and the curves for the body weight change of four experimental groups were shown in FIG. 2.

[4] = Body weight and safety in the Ba/F3 EGFR-G724S xenograft model; type: in vivo, B-NDG mice; details: 15, 30 and 50 mg/kg, orally, once per day, two weeks
Source text: as §8, §9, §10
The experimental scheme: B-NDG mice were subcutaneously inoculated with Ba/F3 EGFR-G724S cells to establish a cell-line-derived xenograft model. […] During the whole experiment, the body weight and the tumor sizes of the mice were measured twice each week, and whether or not the presence of toxic reactions was observed. […]

[5] = orally, once per day, 20 mg-240 mg; cited from earlier work
[6] = system: EGFR T790M positive advanced non-small cell lung cancer; details: oral, 80 mg daily dose; patients progressed after prior systematic anti-tumor therapy; cited from earlier work

## C=CC(=O)Nc1cc(Nc2nccc(-c3cn(C)c4ccccc34)n2)c(OCC(F)(F)F)nc1N(C)CCN(C)C [Furmonertinib mesilate]
Ba/F3 EGFR-Del19/C797S
  IC50: 1220 nM
Ba/F3 EGFR-Del19/G724S
  IC50: 3.84 nM
Ba/F3 EGFR-E709-710 > D
  IC50: 89.6 nM
Ba/F3 EGFR-E709A
  IC50: 17.9 nM
Ba/F3 EGFR-E709H
  IC50: 31.3 nM
Ba/F3 EGFR-E709V
  IC50: 14.3 nM
Ba/F3 EGFR-G719S
  IC50: 12.1 nM
Ba/F3 EGFR-G724S [1]
  IC50: 21.3 nM
Ba/F3 EGFR-L718Q
  IC50: 501 nM
Ba/F3 EGFR-L747S/G719A
  IC50: 16.5 nM
Ba/F3 EGFR-L747S
  IC50: 15 nM
Ba/F3 EGFR-L747V
  IC50: 31.6 nM
Ba/F3 EGFR-L858R/C797S
  IC50: 2210 nM
Ba/F3 EGFR-L861Q
  IC50: 3.8 nM
Ba/F3 EGFR-S768I
  IC50: 21.6 nM
Ba/F3-EGFR-E709K-G719A
  IC50: 39 nM
Ba/F3-EGFR-L858R-L718Q
  IC50: 289 nM
Ba/F3-EGFR-L858R-L718V
  IC50: 23.9 nM
[2]
  anti-proliferation effect: good anti-proliferation effect
Ba/F3 EGFR-G724S [3]; 15 mg/kg
  anti-tumor activity: moderate anti-tumor activity
Ba/F3 EGFR-G724S [3]; 30 mg/kg
  anti-tumor activity: extremely significant anti-tumor activity
Ba/F3 EGFR-G724S [3]; 50 mg/kg
  anti-tumor activity: extremely significant anti-tumor activity
[4]
  effect on the body weight of mice: little effect on the body weight of mice
  safety: good safety
[5]
  adverse events of subjects: mild or moderate
  dose-related toxic reaction: does not occur
  tolerance and safety: the tolerance and the safety are good
[6]
  anti-tumor effect: relatively good anti-tumor effect
  disease progression: can alleviate or stabilize the disease progression
